Data reported in the METLIN SMRT retention time set (Domingo-Almenara et al. 2019).

Experiment: gradient 5% acetonitrile 3 min, to 50% in 2 min, to 85% in 15 min, held 3 min, 100 µL/min
Details: column: Zorbax Extend-C18 2.1 x 50 mm; eluents: water / acetonitrile, 0.1% formic acid
In short: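 The mobile phases were water and acetonitrile, each with 0.1% formic acid, pumped at 100 μL/min through a Zorbax Extend-C18 column (2.1 × 50 mm, 1.8 μm). Pure standards were injected as mixtures of ~100 molecules and detected by a quadrupole time-of-flight mass spectrometer in positive and negative ionization mode. Retention time came from computationally picked adduct peaks, each inspected by hand.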

SMILES | RP-LC retention time [s]
CCc1ccc(NC(=O)N2CCC(n3cnc4c(Cl)cccc4c3=O)CC2)cc1 | 890
N#Cc1cccc(C(=O)NC2CCCC(OC(=O)Nc3ccccc3)C2)c1 (stereo unspecified) | 819
O=S(=O)(Nc1ccc(Cn2cncn2)cc1)c1ccc(F)c(Cl)c1 | 758
CCOc1ccc(C(=O)N2CCN(c3ccc(-c4nc(C)cs4)cn3)CC2)cc1 | 884
CCCCOc1ccc(-c2cc3c4nnc(CCC(=O)NCc5ccccc5C)n4ccn3n2)cc1 | 1010
CCNC(=O)Nc1ccc(OCC(=O)NC(C)c2ccc(OC)c(OC)c2)nc1 (stereo unspecified) | 644
CCCn1cnc2ccc(-c3noc(CNC(=O)c4cccs4)n3)cc21 | 652
CCCCOC(=O)c1ccc(NC(=O)c2ccc(N3CCCCS3(=O)=O)cc2)cc1 | 976
COC(=O)c1c(C)[nH]c(C(=O)N2CCCC(C(=O)NCCCN3CCCCC3)C2)c1C (stereo unspecified) | 596
CCN1C(=O)c2cccnc2Sc2cc(CNC(=O)c3ccncc3)ccc21 | 623
Cc1ccc(-n2cc3c(c(C(=O)Nc4cccnc4)c2=O)CC(C)(C)CC3=O)cc1 | 734
CN(C)CCNC(=O)C1CCN(c2nc3ccc(-c4ccccc4F)nc3s2)CC1 | 658
CCOc1ccc(NS(=O)(=O)c2cc(C(=O)Nc3ccc(F)cc3)n[nH]2)cc1 | 851
COC(=O)c1cccc(NC(=O)Cn2c(C)cc(-c3nnc(C4CCC4)o3)c2C)c1 | 882
COc1ccc(-c2ccnc3nc(-c4ccccc4)nn23)cc1OC | 848
CC(C)C(=O)N1CCN(c2ccc(Nc3c4c(nc5nc(-c6ccccc6)nn35)CCCC4)cc2)CC1 | 898
COc1ccc(C2CC(=O)c3cnc(N4CCN(c5ccccn5)CC4)nc3C2)cc1OC (stereo unspecified) | 633
O=C1CCCCC(Cc2ccccc2)(C(=O)O)N1 (stereo unspecified) | 652
CCOCC(=O)N(C)CCc1noc(-c2ccc(C(=O)N3CCCC3)cc2)n1 | 648
CCCNC(=O)N(C1CCOCC1)C1CCN(C(=O)Cc2ccsc2)CC1 | 703
COc1ccc(-n2c(=O)c(C(=O)NCC3CC3)c(O)c3cccnc32)cc1 | 1110
Cc1ccc2c(c1)N(CC#N)N=C(C(=O)N1CCC(C)CC1)S2(=O)=O | 842

SMILES | RP-LC retention time [s]
Cc1nc(-c2ccccc2OC2CN(S(=O)(=O)c3c(C)noc3C)C2)no1 | 904
CCCCn1cnc2c(-c3ccccc3)cn(CC(=O)Nc3ccccc3)c2c1=O | 1030
O=C1COc2ccccc2N1Cc1nc(-c2ccc(OC(F)(F)F)cc2)no1 | 1100
CC(C)CNC(=O)Cc1cn(C)c2ncccc12 | 595
O=C(c1csc(C(=O)N2CCCC2)n1)N1CCSCC1 | 700
CCn1c(=O)c2cc(C(=O)NCc3cc(C)ccc3C)nn2c2ccccc21 | 930
CS/C(=C\c1ccc(C(=O)c2ccc(C)cc2)n1C)S(C)=O (stereo unspecified) | 1120
Cc1nn(C)c2nc(OCC(=O)N3CCCCCC3)cc(C(F)(F)F)c12 | 958
Cn1ncc(N2CCCC(C(=O)NCc3ccc(F)c(Cl)c3)C2)cc1=O (stereo unspecified) | 726
CCOC(=O)CC(=O)Nc1cc2c(cc1N1CCOCC1)n(C)c(=O)n2C | 660
CC(C)(C)C1(C)NN=C2Sc3ccccc3N21 (stereo unspecified) | 1030
CCOc1ccccc1C(=O)N1CCC2(CC1)NC(=O)c1cc(C)ccc1N2CC | 861
CCCc1ccc(S(=O)(=O)N2CCC3(CC2)NCCN=C3NCc2cccc(OC)c2)cc1 | 834
CC(=O)c1cccc(C(=O)N2CCC3(CC2)NC(=O)N(Cc2ccccc2)C3=O)c1 | 733
CCOC(=O)C1CCCN(C(=O)C2c3ccccc3C(=O)N3CCc4cc(OC)c(OC)cc4C23)C1 (stereo unspecified) | 766
Cn1c(=O)oc2cc(-c3noc(-c4ccccc4Br)n3)ccc21 | 1070
COc1ccccc1CC(=O)NC1CCN(c2cc(-c3ccccc3)[nH]n2)C1 (stereo unspecified) | 688
Cc1nc2c(ccc3nc(NC(=O)c4cc(=O)c5ccccc5o4)sc32)s1 | 828
COc1ccc(-c2nc3cccnc3n2C2CCN(C(=O)c3cccs3)C2)cc1 (stereo unspecified) | 732
Cn1cc(C(CNC(=O)Nc2ccc(Br)cc2F)c2cccnc2)c2ccccc21 (stereo unspecified) | 781
CC1CCCC(NC(=O)c2cc3sc(Cl)cc3n2C)C1C (stereo unspecified) | 1230
CC(=O)c1ccc(NC(=O)CSc2ncc(-c3ccc(C)c(C)c3)o2)cc1 | 970

SMILES | RP-LC retention time [s]
O=c1c2sccc2n(Cc2nc(-c3ccc(C(F)(F)F)cc3)no2)c(=O)n1-c1cccc(F)c1 | 1090
Cc1cccc(N2CCN(S(=O)(=O)c3ccc(-c4nnc(C5CC5)o4)o3)CC2)c1 | 1020
Cc1nn(-c2nc3ccccc3[nH]2)c2c1C(=O)CC(/C=C/c1ccccc1)C2 (stereo unspecified) | 1030
O=S(=O)(c1ccc(F)c(F)c1)N1CCc2nc(-c3ccc(F)cc3)ncc2C1 | 1110
Clc1ccc(OCc2nc(-c3cccnc3)n[nH]2)cc1 | 634
O=C(Nc1ccc(N2CCN(Cc3ccccc3)C2=O)nc1)C1CCC1 | 737
CCOc1ccc(C2Cn3nnc(-c4nc(-c5ccc(C)c(C)c5)no4)c3CO2)cc1 (stereo unspecified) | 1290
Cc1ccc(CC(=O)N2CCc3cc(-c4ccno4)ccc32)cc1 | 1020
Cc1c(-c2noc(C(=O)NCCN3CCCCCC3)n2)oc2ccccc12 | 710
Cc1nn(-c2nc(-c3ccc(Cl)cc3)cs2)c(C)c1CC(=O)N1CCOCC1 | 1030
CC(C)Cn1c(-c2ccc(N(C)C)cc2)nc2ccccc21 | 748
O=C(C1CCC1)N1CCc2sc(S(=O)(=O)NCc3ccc(Cl)cc3)cc2C1 | 916
COc1cccc(C2CC(c3ccc(Br)cc3)=NC3(CCN(C)CC3)N2)c1O (stereo unspecified) | 620
Cc1ccc(NC(=O)C2CCN(C(=O)c3ncn4c3COC(c3ccc(F)cc3)C4)CC2)c(F)c1 (stereo unspecified) | 813
CCOC(=O)c1ccc2nc(NC(=O)c3cccc([N+](=O)[O-])c3)sc2c1 | 959
CN1CCCc2cc(C(CNC(=O)C(=O)NCCN3CCOCC3)N3CCCCC3)ccc21 (stereo unspecified) | 558
CCCS(=O)(=O)c1nc2ccc(NS(=O)(=O)c3ccc(Cl)cc3)cc2s1 | 984
COCCN1C(=O)CCC2(C(=O)NCCc3ccncc3)CCCC=C12 (stereo unspecified) | 542
CSc1ncccc1C(=O)NCc1nn(C(C)C)c2ccccc12 | 830
CCC(=O)N1CCc2sc(S(=O)(=O)N3CCN(c4ccc(OC)cc4)CC3)cc2C1 | 886
O=C(CCNS(=O)(=O)c1ccc(Cl)cc1)N1CCN(c2ccccn2)CC1 | 609
COc1ccc(C2CC(=O)N(c3cccc(Br)c3)C(=O)C2)cc1 | 970
